Laboratory results: patent US4062948A, “Dihydromocimycin antibiotics” (Gist-Brocades N.V., priority 1970, dated 1977)
Converted amounts (≈) assume the structure as drawn. “Also recorded” adds a separate entry of the source.

How the values were obtained:
[1] = test system: Bacillus subtilis TH 10; experiment: Liquid dilution tests; format: cell-based; details: TH10, read-out: Minimum inhibitory concentration
[2] = test system: Staphylococcus aureus A 2001; experiment: Agar dilution tests; format: cell-based; details: A2001, anaerobic culture, read-out: Minimum inhibitory concentration
[3] = test system: Bacillus cereus var. mycoides; experiment: microbe, parasite or virus in culture; format: cell-based; details: read-out: Minimum inhibitory concentration
[4] = test system: Clostridium septicum A2152; experiment: Agar dilution tests; format: cell-based; details: anaerobic culture, read-out: Minimum inhibitory concentration
[5] = test system: Clostridium perfringens A738; experiment: microbe, parasite or virus in culture; format: cell-based; details: A738, read-out: Minimum inhibitory concentration
[6] = test system: same microorganisms as mocimycin; experiment: in vitro antimicrobial activity, comparison of the two antibiotics; format: cell-based
[7] = test system: Bacillus cereus D261; experiment: Liquid dilution tests; format: cell-based; details: read-out: Minimum inhibitory concentration
[8] = test system: Mycoplasma hyorhinus A2230; experiment: Liquid dilution tests; format: cell-based; details: A2230, read-out: Minimum inhibitory concentration
[9] = test system: Diplococcus pneumoniae L54; experiment: Agar dilution tests; format: cell-based; details: Streptococcus pneumoniae, anaerobic culture, read-out: Minimum inhibitory concentration
[10] = Solubility; format: physicochemical
[11] = test system: R-Streptococcen A2148; experiment: Agar dilution tests; format: cell-based; details: read-out: Minimum inhibitory concentration
[12] = test system: Bacillus subtilis ATCC 6051; experiment: Liquid dilution tests; format: cell-based; details: ATCC6051, read-out: Minimum inhibitory concentration
[13] = test system: Bacillus cereus D220; experiment: Liquid dilution tests; format: cell-based; details: read-out: Minimum inhibitory concentration
[14] = test system: Staphylococcus aureus A 2000; experiment: Agar dilution tests; format: cell-based; details: A2000, anaerobic culture, read-out: Minimum inhibitory concentration
[15] = test system: Listeria monocytogenes A2131; experiment: Agar dilution tests; format: cell-based; details: anaerobic culture, read-out: Minimum inhibitory concentration
[16] = test system: microorganism causing Treponema dysentery; experiment: experiments against the microorganism causing Treponema dysentery
[17] = test system: Bacillus mesenterium D169; experiment: Liquid dilution tests; format: cell-based; details: read-out: Minimum inhibitory concentration
[18] = test system: Listeria monocytogenes A2132; experiment: Agar dilution tests; format: cell-based; details: anaerobic culture, read-out: Minimum inhibitory concentration
[19] = test system: Bacillus cereus D166; experiment: Liquid dilution tests; format: cell-based; details: read-out: Minimum inhibitory concentration
[20] = test system: Escherichia coli U20; experiment: Agar dilution tests; format: cell-based; details: anaerobic culture, read-out: Minimum inhibitory concentration
[21] = test system: Bacillus cereus TH 1; experiment: Liquid dilution tests; format: cell-based; details: TH1, read-out: Minimum inhibitory concentration
[22] = test system: Streptococcus zocepidemicus A2144; experiment: Agar dilution tests; format: cell-based; details: anaerobic culture, read-out: Minimum inhibitory concentration
[23] = test system: Bacillus thuringiensis W11; experiment: Liquid dilution tests; format: cell-based; details: read-out: Minimum inhibitory concentration
[24] = test system: Brucella suis (smooth) A2126; experiment: microbe, parasite or virus in culture; format: cell-based; details: read-out: Minimum inhibitory concentration
[25] = test system: Salmonella typhimurium R172; experiment: Agar dilution tests; format: cell-based; details: Salmonella enterica, anaerobic culture, read-out: Minimum inhibitory concentration
[26] = test system: Bacillus cereus B569; experiment: Liquid dilution tests; format: cell-based; details: read-out: Minimum inhibitory concentration
[27] = test system: Streptomyces viridochromogenes; experiment: Liquid dilution tests; format: cell-based; details: read-out: Minimum inhibitory concentration
[28] = test system: Streptococcus haemolyticus A2182; experiment: Liquid dilution tests; format: cell-based; details: read-out: Minimum inhibitory concentration
[29] = test system: Bacillus subtilis ATCC 6633; experiment: Liquid dilution tests; format: cell-based; details: ATCC6633, read-out: Minimum inhibitory concentration
[30] = test system: Treponema spec. A2275; experiment: Agar dilution tests; format: cell-based; details: anaerobic culture, read-out: Minimum inhibitory concentration
[31] = test system: Bacillus subtilis 6346 D167; experiment: Liquid dilution tests; format: cell-based; details: read-out: Minimum inhibitory concentration
[32] = growth and feed-conversion of animals being fattened; format: in vivo; details: low concentration in feed; chickens or pigs
Excerpt: Many properties of dihydromocimycin are similar to those of mocimycin.

[33] = test system: Bacillus subtilis 220 D178; experiment: Liquid dilution tests; format: cell-based; details: read-out: Minimum inhibitory concentration
[34] = test system: Streptococcus haemolyticus A266; experiment: Liquid dilution tests; format: cell-based; details: A266, read-out: Minimum inhibitory concentration
[35] = test system: Pasteurella haemolytica A2136; experiment: Agar dilution tests; format: cell-based; details: Mannheimia haemolytica, anaerobic culture, read-out: Minimum inhibitory concentration
[36] = test system: Listeria monocytogenes A2130; experiment: Agar dilution tests; format: cell-based; details: anaerobic culture, read-out: Minimum inhibitory concentration
[37] = growth promotion in slaughter chickens (Example II); format: in vivo; details: feed additive
Excerpt: Slaughter chickens are given mocimycin in the form of the sodium salt obtained in Example 1, in a mixture with component of the feed (wheat flour), the amount of antibiotic in the feed (based on the weight of the feed) being as specified in the following Table, which gives the weight of the chickens after 3, 5 and 7 weeks.

[38] = test system: Staphylococcus aureus L 160a; experiment: micro liquid serial dilution test (Table II); format: cell-based; details: 18 h, read-out: Minimum inhibitory concentration
Protocol: The microbiological activity of the antibiotic preparation towards a number of micoorganisms has been determined by a micro liquid serial dilution test:
A stock solution of the test compounds at a concentration of 200 μg/ml in 0.05 molar phosphate buffer at a pH of 6.5 was prepared and serial 1:1 dilutions were made with a liquid medium inoculated with the test organism, using conventional glass spot-test plates. The plates were incubated 18 hours at 30° C or 37° C. The minimum inhibitory concentration (MIC) which is the smallest concentration of compound completely inhibiting the growth of the test organism is read and calculated in μg/ml.
wherein ') indicates penicillinase-producer; ") indicates recently isolated hospital strain.

[39] = test system: Mycoplasma gallisepticum; experiment: in vivo activity against Mycoplasma gallisepticum
[40] = test system: Actinobacillus equuli; experiment: activity against Actinobacillus equuli (in words); format: cell-based

CC=CC=CC1OC(O)(C(CC)C(=O)NCC=CC=C(C)C(OC)C(C)C2OC(C=CC=CC=C(C)C(=O)C3=C(O)CCNC3=O)C(O)C2O)C(O)C(O)C1(C)C (centres unmarked) [dihydromocimycin]
MIC [1]: 50 µg/mL (≈ 62.6 µM)
MIC [2]: > 100 µg/mL
MIC [3]: 0.45 µg/mL (≈ 0.563 µM)
MIC [4]: 10 µg/mL (≈ 12.5 µM)
MIC [5]: > 100 µg/mL
in vitro activity compared with mocimycin [6]: in many cases it shows even a better activity than mocimycin; also recorded: more active than mocimycin against many microorganisms
MIC [7]: 0.6 µg/mL (≈ 0.751 µM)
MIC [8]: 0.3 µg/mL (≈ 0.375 µM)
MIC [9]: < 0.75 µg/mL
solubility ([10]; carbon tetrachloride and benzene (dihydromocimycin)): moderate
solubility ([10]; chloroform, methyl isobutyl ketone, ethyl acetate, butyl acetate, acetone, dioxan, methanol, ethanol, tetrahydrofuran, weakly alkaline aqueous solutions): good
solubility ([10]; diethyl ether, water, weakly acid aqueous solutions, cyclohexane and petroleum ether): insoluble
MIC [11]: 3 µg/mL (≈ 3.75 µM)
MIC [12]: 50 µg/mL (≈ 62.6 µM)
MIC [13]: 0.9 µg/mL (≈ 1.13 µM)
MIC [14]: > 100 µg/mL
MIC [15]: 6 µg/mL (≈ 7.51 µM)
treatment of Treponema dysentery compared with tylosin and mocimycin [16]: superior to tylosin (and also to mocimycin)
activity against tylosin-resistant strains ([16]; tylosin-resistant strains): active against tylosin-resistant strains
MIC [17]: 50 µg/mL (≈ 62.6 µM)
MIC [18]: 6 µg/mL (≈ 7.51 µM)
MIC [19]: 0.6 µg/mL (≈ 0.751 µM)
MIC [20]: 100 µg/mL (≈ 125 µM)
MIC [21]: 1.2 µg/mL (≈ 1.5 µM)
MIC [22]: 6 µg/mL (≈ 7.51 µM)
MIC [23]: 0.9 µg/mL (≈ 1.13 µM)
MIC [24]: 0.4 µg/mL (≈ 0.501 µM)
MIC [25]: > 100 µg/mL
MIC [26]: 1.2 µg/mL (≈ 1.5 µM)
MIC [27]: 0.9 µg/mL (≈ 1.13 µM)
MIC [28]: 0.12 µg/mL (≈ 0.15 µM)
MIC [29]: 50 µg/mL (≈ 62.6 µM)
MIC [30]: 10 µg/mL (≈ 12.5 µM)
MIC [31]: 0.9 µg/mL (≈ 1.13 µM)
growth and feed-conversion [32]: does not show any improvement of the growth or feed-conversion; also recorded: does not show the aforesaid properties
MIC [33]: 75 µg/mL (≈ 93.9 µM)
MIC [34]: 0.45 µg/mL (≈ 0.563 µM)
MIC [35]: 1.5 µg/mL (≈ 1.88 µM)
MIC [36]: 1.5 µg/mL (≈ 1.88 µM)

CC=CC=CC1OC(O)(C(CC)C(=O)NCC=CC=C(C)C(OC)C(C)C2OC(C=CC=CC=C(C)C(=O)c3c(O)cc[nH]c3=O)C(O)C2O)C(O)C(O)C1(C)C (centres unmarked) [mocimycin]
MIC [1]: 100 µg/mL (≈ 125 µM)
MIC [2]: > 100 µg/mL
growth of the chickens [37]: an increase in growth
MIC [38]: > 200 µg/mL
MIC [3]: 1.2 µg/mL (≈ 1.51 µM)
MIC [4]: 10 µg/mL (≈ 12.5 µM)
MIC [5]: > 100 µg/mL
MIC [7]: 0.9 µg/mL (≈ 1.13 µM)
MIC [8]: 1 µg/mL (≈ 1.25 µM)
MIC [9]: 1.5 µg/mL (≈ 1.88 µM)
solubility ([10]; carbon tetrachloride and benzene (mocimycin)): poor
solubility ([10]; chloroform, methyl isobutyl ketone, butyl acetate, ethyl acetate, acetone, methanol and alkaline solutions): good
solubility ([10]; diethyl ether, petroleum ether, water and acid solutions): insoluble
solubility ([10]; pH 9): poorly soluble
MIC [11]: 6 µg/mL (≈ 7.53 µM)
MIC [12]: 100 µg/mL (≈ 125 µM)
MIC [13]: 1.2 µg/mL (≈ 1.51 µM)
MIC [14]: > 100 µg/mL
MIC [15]: 6 µg/mL (≈ 7.53 µM)
activity against Mycoplasma gallisepticum in vivo [39]: no activity
MIC [17]: 100 µg/mL (≈ 125 µM)
MIC [18]: 6 µg/mL (≈ 7.53 µM)
MIC [19]: 0.6 µg/mL (≈ 0.753 µM)
MIC [20]: > 100 µg/mL
MIC [21]: 1.8 µg/mL (≈ 2.26 µM)
MIC [22]: 6 µg/mL (≈ 7.53 µM)
MIC [23]: 1.2 µg/mL (≈ 1.51 µM)
MIC [24]: 0.75 µg/mL (≈ 0.941 µM)
MIC [25]: > 100 µg/mL
MIC [26]: 2.5 µg/mL (≈ 3.14 µM)
MIC [27]: 2.5 µg/mL (≈ 3.14 µM)
activity [40]: active
MIC [28]: 0.25 µg/mL (≈ 0.314 µM)
MIC [29]: 100 µg/mL (≈ 125 µM)
MIC [30]: 30 µg/mL (≈ 37.6 µM)
MIC [31]: 1.2 µg/mL (≈ 1.51 µM)
growth and feed-conversion [32]: improves the growth and the feed-conversion markedly; also recorded: advantageous growth-promoting properties
MIC [33]: 75 µg/mL (≈ 94.1 µM)
MIC [34]: 0.45 µg/mL (≈ 0.565 µM)
MIC [35]: 3 µg/mL (≈ 3.76 µM)
MIC [36]: 6 µg/mL (≈ 7.53 µM)
